Reference: US8247211B2, “Glycopeptide antibiotics” (American Cyanamid Company, priority 2001, dated 2012)
≈ marks a conversion by molar mass, not a printed value.

Key:
[1] = tested on: Enterococcus sp.; test: In vitro antibacterial evaluation: minimum inhibitory concentration (MIC), broth dilution method; type: cell-based; conditions: 18 hours at 35° C.
How it was run: (§1)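 MIC read as lowest drug level preventing visible growth. Organisms at 5×10^5 CFU/mL were exposed to a 64-0.06 μg/mL dilution series in Muller-Hinton II […] following NCCLS broth dilution standard M7-A2.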

[2] = tested on: Escherichia coli; test: as above; type: cell-based; conditions: 18 hours at 35° C.
How it was run: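 NCCLS M7-A2 broth dilution; Muller-Hinton II […]; 5×10^5 CFU/mL; 64-0.06 μg/mL. MIC = lowest concentration with no growth.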

[3] = tested on: Staphylococcus sp.; test: as above; type: cell-based
How it was run: as §1

[4] = tested on: Streptococcus sp.; test: as above; type: cell-based; conditions: 18 hours at 35° C.
How it was run: as §1

[5] = tested on: Staphylococcus aureus-SMITH (GC 4543); test: Acute lethal infection in mice (ED50); type: in vivo; conditions: female CD-1 mice, intraperitoneal challenge, intravenous dose 30 min. after infection, 7 day survival ratios
How it was run: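 Female CD-1 mice (20 ± 1-2 g) were infected intraperitoneally with enough bacteria, suspended in Trypticase Soy Broth or hog gastric mucin, to kill untreated controls within 24-48 hr. Compound in saline or 5% dextrose was given intravenously 30 min after infection. ED50 came from pooled 7-day survival over 3 tests.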

[6] = Anatomic pathology (heart and kidney histopathology) in mice; type: in vivo, CD-1 mice; conditions: 20 mg/kg intravenously daily for 9 days, microscopic histopathology on day 10
How it was run: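 Juvenile CD-1 mice (20 days old; 5 vehicle, 5 treated) received glycopeptide antibiotic 20 mg/kg i.v. daily for 9 days. Necropsied tissues formalin-fixed, paraffin-embedded, H&E stained and examined microscopically; findings graded slight to severe versus controls.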

[7] = broth dilution, inoculum 5×10^5 CFU/mL

Which “MIC Enterococcus avium (GC 4558)” value ([1]; Enterococcus avium (GC 4558)) does the source give for `CC(C1CCCCC1)C1NC(=O)CNC(=O)C(CO)NC(=O)C(C(O)C2CNC(=N)N2C2OC(CO)C(O)C(O)C2O)NC(=O)C(C(O)C2CNC(=N)N2)NC(=O)C(Cc2ccc(OC3OC(CO)C(OC4OC5COC6(OC5C(O)C4O)C4CC5CC(C4)CC6C5)C(O)C3O)cc2)NC1=O` (stereo not drawn) [Example 221, Cyclo[3-cyclohexyl-2-aminobutanoyl-O-[4-O-[4,6-O-(2-adamantylidene)hexopyranosyl]hexopyranosyl]tyrosyl-3-(2-iminoimidazolidin-4-yl)seryl-3-(3-hexopyranosyl-2-iminoimidazolidin-4-yl)serylserylglycyl]] here?
The value was 2 µg/mL (≈ 1.4 µM).

What about the “MIC Enterococcus faecalis (ATCC 29212)” value ([1]; Enterococcus faecalis (ATCC 29212)) of the same compound?
The value was 2 µg/mL (≈ 1.4 µM).

What about the “MIC Enterococcus faecalis (GC 2242)” value ([1]; Enterococcus faecalis (GC 2242)) of the same compound?
The value was 2 µg/mL (≈ 1.4 µM).

What about the “MIC Enterococcus faecalis (GC 2691)” value ([1]; Enterococcus faecalis (GC 2691)) of the same compound?
The value was 2 µg/mL (≈ 1.4 µM).

What about the “MIC Enterococcus faecalis (GC 3059)” value ([1]; Enterococcus faecalis (GC 3059)) of the same compound?
Its value is 1 µg/mL (≈ 0.698 µM).

What about the “MIC Enterococcus faecalis (GC 4552)” value ([1]; Enterococcus faecalis (GC 4552)) of the same compound?
Its value is 2 µg/mL (≈ 1.4 µM).

And the “MIC Enterococcus faecalis (GC 4553)” value ([1]; Enterococcus faecalis (GC 4553))?
The value was 2 µg/mL (≈ 1.4 µM).

And the “MIC Enterococcus faecalis (GC 4554)” value ([1]; Enterococcus faecalis (GC 4554))?
Its value is 2 µg/mL (≈ 1.4 µM).

What about the “MIC Enterococcus faecalis (GC 6189)” value ([1]; Enterococcus faecalis (GC 6189)) of the same compound?
Its value is 1 µg/mL (≈ 0.698 µM).

And the “MIC Enterococcus faecium (GC 2243)” value ([1]; Enterococcus faecium (GC 2243))?
Its value is 2 µg/mL (≈ 1.4 µM).

What about the “MIC Enterococcus faecium (GC 4556)” value ([1]; Enterococcus faecium (GC 4556)) of the same compound?
Its value is 2 µg/mL (≈ 1.4 µM).

What about the “MIC Enterococcus faecium (GC 4557)” value ([1]; Enterococcus faecium (GC 4557)) of the same compound?
The value was 1 µg/mL (≈ 0.698 µM).

And the “MIC Enterococcus avium (GC 4558)” value [1, 7]?
Its value is 2 µg/mL (≈ 1.4 µM).

And the “MIC Enterococcus faecalis (ATCC 29212)” value [1, 7]?
The value was 2 µg/mL (≈ 1.4 µM).

What about the “MIC Enterococcus faecalis (GC 2242)” value [1, 7] of the same compound?
Its value is 2 µg/mL (≈ 1.4 µM).

What about the “MIC Enterococcus faecalis (GC 2691)” value [1, 7] of the same compound?
The value was 2 µg/mL (≈ 1.4 µM).

And the “MIC Enterococcus faecalis (GC 3059)” value [1, 7]?
Its value is 1 µg/mL (≈ 0.698 µM).

What about the “MIC Enterococcus faecalis (GC 4552)” value [1, 7] of the same compound?
Its value is 2 µg/mL (≈ 1.4 µM).

And the “MIC Enterococcus faecalis (GC 4553)” value [1, 7]?
Its value is 2 µg/mL (≈ 1.4 µM).

What about the “MIC Enterococcus faecalis (GC 4554)” value [1, 7] of the same compound?
Its value is 2 µg/mL (≈ 1.4 µM).

What about the “MIC Enterococcus faecalis (GC 6189)” value [1, 7] of the same compound?
Its value is 1 µg/mL (≈ 0.698 µM).

And the “MIC Enterococcus faecium (GC 2243)” value [1, 7]?
The value was 2 µg/mL (≈ 1.4 µM).

And the “MIC Enterococcus faecium (GC 4556)” value [1, 7]?
Its value is 2 µg/mL (≈ 1.4 µM).

What about the “MIC Enterococcus faecium (GC 4557)” value [1, 7] of the same compound?
Its value is 1 µg/mL (≈ 0.698 µM).

What about the “MIC Escherichia coli (ATCC 25922)” value ([2]; Escherichia coli (ATCC 25922)) of the same compound?
Its value is 64 µg/mL (≈ 44.6 µM).

What about the “MIC Escherichia coli (GC 4559)” value ([2]; Escherichia coli (GC 4559)) of the same compound?
The value was 32 µg/mL (≈ 22.3 µM).

And the “MIC Escherichia coli (GC 4560)” value ([2]; Escherichia coli (GC 4560))?
Its value is 2 µg/mL (≈ 1.4 µM).

And the “MIC Staphylococcus aureus (ATCC 29213)” value ([3]; strain ATCC 29213)?
Its value is 1 µg/mL (≈ 0.698 µM).

What about the “MIC Staphylococcus aureus (GC 1131)” value ([3]; strain GC 1131) of the same compound?
The value was 2 µg/mL (≈ 1.4 µM).

And the “MIC Staphylococcus aureus (GC 3051)” value ([3]; strain GC 3051)?
Its value is 2 µg/mL (≈ 1.4 µM).

What about the “MIC Staphylococcus aureus (GC 3053)” value ([3]; strain GC 3053) of the same compound?
Its value is 1 µg/mL (≈ 0.698 µM).

What about the “MIC Staphylococcus aureus (GC 4541)” value ([3]; strain GC 4541) of the same compound?
Its value is 2 µg/mL (≈ 1.4 µM).

What about the “MIC Staphylococcus aureus (GC 4542)” value ([3]; strain GC 4542) of the same compound?
Its value is 2 µg/mL (≈ 1.4 µM).

And the “MIC Staphylococcus aureus-SMITH (GC 4543)” value ([3]; strain GC 4543)?
The value was 2 µg/mL (≈ 1.4 µM).

And the “MIC Staphylococcus aureus (GC 4544)” value ([3]; strain GC 4544)?
Its value is 2 µg/mL (≈ 1.4 µM).

What about the “MIC Staphylococcus aureus (GC 4545)” value ([3]; strain GC 4545) of the same compound?
The value was 2 µg/mL (≈ 1.4 µM).

And the “MIC Staphylococcus haemolyticus (GC 4546)” value ([3]; strain GC 4546)?
The value was 2 µg/mL (≈ 1.4 µM).

What about the “MIC Coagulase Negative Staphylococcus (GC 4547)” value ([3]; strain GC 4547) of the same compound?
The value was 2 µg/mL (≈ 1.4 µM).

And the “MIC Coagulase Negative Staphylococcus (GC 4548)” value ([3]; strain GC 4548)?
The value was 1 µg/mL (≈ 0.698 µM).

What about the “MIC Coagulase Negative Staphylococcus (GC 4549)” value ([3]; strain GC 4549) of the same compound?
The value was 1 µg/mL (≈ 0.698 µM).

And the “MIC Coagulase Negative Staphylococcus (GC 4551)” value ([3]; strain GC 4551)?
Its value is 2 µg/mL (≈ 1.4 µM).

What about the “MIC Streptococcus agalactiae (GC 4564)” value ([4]; Streptococcus agalactiae (GC 4564)) of the same compound?
Its value is less than 0.12 µg/mL.

And the “MIC Streptococcus pneumoniae (ATCC 6301)” value ([4]; Streptococcus pneumoniae (ATCC 6301))?
Its value is less than 0.12 µg/mL.

What about the “MIC Streptococcus pneumoniae (GC 1894)” value ([4]; Streptococcus pneumoniae (GC 1894)) of the same compound?
Its value is less than 0.12 µg/mL.

What about the “MIC Streptococcus pneumoniae (GC 4565)” value ([4]; Streptococcus pneumoniae (GC 4565)) of the same compound?
Its value is less than 0.12 µg/mL.

What about the “MIC Streptococcus pyogenes (GC 4563)” value ([4]; Streptococcus pyogenes (GC 4563)) of the same compound?
Its value is less than 0.12 µg/mL.

What about the “MIC Streptococcus agalactiae (GC 4564)” value [4, 7] of the same compound?
Its value is less than 0.12 µg/mL.

And the “MIC Streptococcus pneumoniae (ATCC 6301)” value [4, 7]?
The value was less than 0.12 µg/mL.

What about the “MIC Streptococcus pneumoniae (GC 1894)” value [4, 7] of the same compound?
The value was less than 0.12 µg/mL.

And the “MIC Streptococcus pneumoniae (GC 4565)” value [4, 7]?
The value was less than 0.12 µg/mL.

What about the “MIC Streptococcus pyogenes (GC 4563)” value [4, 7] of the same compound?
Its value is less than 0.12 µg/mL.

And the median effective dose (ED50), Staphylococcus aureus-SMITH (GC 4543) [5]?
Its median effective dose (ED50), Staphylococcus aureus-SMITH (GC 4543) is 0.03 mg/kg.

And the “Anatomical Pathology (Day 10), Heart” value [6]?
The value was 0.

What about the “Anatomical Pathology (Day 10), Kidney” value [6] of the same compound?
The value was 0.
